Experimental data taken from US20050197350A1, “Novel quinoline, tetrahydroquinazoline, and pyrimidine derivatives and methods of treatment related to the use thereof” (TAISHO PHARMACEUTICAL CO., LTD., priority 2003, published 2005).

Each molecule was assayed on MCH receptors (assay: MCH receptor activity class (method not given)). Conditions: MCH receptor activity class 1-3 (percent of control at 10^-7 M or IC50).

Row | SMILES | class
1 | CN(C)c1cc(N[C@H]2CC[C@@H](CNC(=O)Nc3ccccc3C(F)(F)F)CC2)nc2ccccc12 [compound 2366] | 3 (Class 3 The value of percent of control at 10^−7 M was more than 60% or the value of IC50 was more than 200 nM.)
2 | Cc1cccc(C)c1NC(=O)NC[C@H]1CC[C@@H](Nc2nc3c(c(N(C)C)n2)CCCC3)CC1 [compound 2452] | 1 (Class 1: The value of percent of control at 10^−7 M was less than 40% or the value of IC50 was less than 50 nM.)
3 | Cc1cc([N+](=O)[O-])ccc1NC(=S)N[C@H]1CC[C@@H](Nc2cc(N(C)C)c3ccccc3n2)CC1 [compound 2291] | 3 (Class 3 The value of percent of control at 10^−7 M was more than 60% or the value of IC50 was more than 200 nM.)

Same assay, conditions: MCH receptor; class by percent of control at 10^-7 M or IC50

Row | SMILES | class
4 | CC(Oc1ccccc1)C(=O)NC[C@H]1CC[C@@H](Nc2cc(N(C)C)c3ccccc3n2)CC1 (relative stereo) [compound 176, N-[(cis-4-{[4-(dimethylamino)quinolin-2-yl]amino}cyclohexyl)methyl]-2-phenoxypropanamide] | 3 (Class 3 The value of percent of control at 10^−7 M was more than 60% or the value of IC50 was more than 200 nM.)
5 | CN(C)c1nc(N[C@H]2CC[C@@H](NC(=S)Nc3ccc(OC(F)F)cc3)CC2)nc2c1CCCC2 [compound 1987] | 3 (Class 3 The value of percent of control at 10^−7 M was more than 60% or the value of IC50 was more than 200 nM.)
6 | CN(C)c1cc(N[C@H]2CC[C@@H](NC(=O)c3csc(-c4ccc5c(c4)CCO5)n3)CC2)nc2ccccc12 [compound 141] | 3 (Class 3 The value of percent of control at 10^−7 M was more than 60% or the value of IC50 was more than 200 nM.)
7 | CC(=O)c1cccc(NC(=S)N[C@H]2CC[C@@H](Nc3nc4c(c(N(C)C)n3)CCCC4)CC2)c1 [compound 1925] | 3 (Class 3 The value of percent of control at 10^−7 M was more than 60% or the value of IC50 was more than 200 nM.)

Same assay, conditions: activity class 1-3: percent of control at 10^-7 M or IC50

Row | SMILES | class
8 | COc1ccc(Cl)cc1CNC[C@H]1CC[C@@H](Nc2nccc(N(C)C)n2)CC1 [compound 1535] | 3 (Class 3 The value of percent of control at 10^−7 M was more than 60% or the value of IC50 was more than 200 nM.)
9 | CCCCCCCCOC(=O)N[C@H]1CC[C@@H](Nc2nc3c(c(N(C)C)n2)CCCC3)CC1 [compound 1586] | 3 (Class 3 The value of percent of control at 10^−7 M was more than 60% or the value of IC50 was more than 200 nM.)
10 | CCOc1cccc(CN[C@H]2CC[C@@H](Nc3nccc(N(C)C)n3)CC2)c1 [compound 1520] | 3 (Class 3 The value of percent of control at 10^−7 M was more than 60% or the value of IC50 was more than 200 nM.)
11 | COCCOC(=O)N[C@H]1CC[C@@H](Nc2nc3c(c(N(C)C)n2)CCCC3)CC1 [compound 1585] | 3 (Class 3 The value of percent of control at 10^−7 M was more than 60% or the value of IC50 was more than 200 nM.)

Same assay, conditions: activity class per percent of control at 10^-7 M or IC50

Row | SMILES | class
12 | CN(C)c1cc(N[C@H]2CC[C@@H](CNCc3cccc(Br)c3)CC2)nc2ccccc12 [compound 1143] | 3 (Class 3 The value of percent of control at 10^−7 M was more than 60% or the value of IC50 was more than 200 nM.)

Same assay, conditions: class 1-3 by percent of control at 10^-7 M or IC50

Row | SMILES | class
13 | CN(C)c1nc(N[C@H]2CC[C@@H](CNC(=O)c3cc(F)cc(F)c3)CC2)nc2c1CCCC2 [compound 596] | 3 (Class 3 The value of percent of control at 10^−7 M was more than 60% or the value of IC50 was more than 200 nM.)
14 | CN(C)c1nc(N[C@H]2CC[C@@H](NC(=O)c3cncc(Br)c3)CC2)nc2c1CCCC2 [compound 524, 5-bromo-N-(cis-4-{[4-(dimethylamino)-5,6,7,8-tetrahydroquinazolin-2-yl]amino}cyclohexyl)nicotinamide] | 1 (Class 1: The value of percent of control at 10^−7 M was less than 40% or the value of IC50 was less than 50 nM.)
15 | CN(C)c1ccnc(N[C@H]2CC[C@@H](CNC(=O)CC3CCCC3)CC2)n1 [compound 420] | 3 (Class 3 The value of percent of control at 10^−7 M was more than 60% or the value of IC50 was more than 200 nM.)

Same assay, conditions: class by percent of control at 10^-7 M or IC50

Row | SMILES | class
16 | CCOc1cc(OCC)c(OCC)cc1CNC[C@H]1CC[C@@H](Nc2cc(N(C)C)c3ccccc3n2)CC1 [compound 1174] | 2 (Class 2: The value of percent of control at 10^−7 M was from 40% to 60% or the value of IC′50 was from 50 nM to 200 nM.)
17 | C=CCOc1ccccc1CNC[C@H]1CC[C@@H](Nc2nccc(N(C)C)n2)CC1 [compound 1298] | 1 (Class 1: The value of percent of control at 10^−7 M was less than 40% or the value of IC50 was less than 50 nM.)
18 | CN(C)c1nc(N[C@H]2CC[C@@H](CNC(=O)Cc3ccccc3Br)CC2)nc2c1CCCC2 [compound 642] | 3 (Class 3 The value of percent of control at 10^−7 M was more than 60% or the value of IC50 was more than 200 nM.)
19 | CN(C)c1ccnc(N[C@H]2CC[C@@H](CNCc3ccc(CO)o3)CC2)n1 [compound 1276] | 3 (Class 3 The value of percent of control at 10^−7 M was more than 60% or the value of IC50 was more than 200 nM.)
20 | CN(C)c1ccnc(N[C@H]2CC[C@@H](CNC(=O)C3CC(=O)c4ccccc43)CC2)n1 (relative stereo) [compound 935, N-[(cis-4-{[4-(dimethylamino)pyrimidin-2-yl]amino}cyclohexyl)methyl]-3-oxoindane-1-carboxamide] | 1 (Class 1: The value of percent of control at 10^−7 M was less than 40% or the value of IC50 was less than 50 nM.)
21 | Cc1c(C)c(C)c(CNC2CCC(Nc3cc(N(C)C)c4ccccc4n3)CC2)c(C)c1C (stereo not shown) [compound 1451] | 3 (Class 3 The value of percent of control at 10^−7 M was more than 60% or the value of IC50 was more than 200 nM.)
22 | CN(C)c1nc(N[C@H]2CC[C@@H](NC(=S)Nc3c(Cl)cc(Cl)cc3Cl)CC2)nc2c1CCCC2 [compound 1754] | 2 (Class 2: The value of percent of control at 10^−7 M was from 40% to 60% or the value of IC′50 was from 50 nM to 200 nM.)
23 | CN(C)c1cc(N[C@H]2CC[C@@H](NC(=O)Nc3ccccc3C(C)(C)C)CC2)nc2ccccc12 [compound 2114] | 3 (Class 3 The value of percent of control at 10^−7 M was more than 60% or the value of IC50 was more than 200 nM.)
24 | Cc1ccc(C(=O)CC(SCc2ccc(Cl)cc2)C(=O)N[C@H]2CC[C@@H](Nc3nccc(N(C)C)n3)CC2)cc1 (relative stereo) [compound 882] | 3 (Class 3 The value of percent of control at 10^−7 M was more than 60% or the value of IC50 was more than 200 nM.)
25 | Cc1cc(C(=O)NC[C@H]2CC[C@@H](Nc3cc(N(C)C)c4ccccc4n3)CC2)cc(C)c1OCc1ccccc1 [compound 809] | 3 (Class 3 The value of percent of control at 10^−7 M was more than 60% or the value of IC50 was more than 200 nM.)

Same assay, conditions: class by percent of control at 10^−7 M or IC50

Row | SMILES | class
26 | CCOc1ncccc1C(=O)N[C@H]1CC[C@@H](Nc2nc(C)c(C)c(N(C)C)n2)CC1 [compound 2834] | 3 (Class 3 The value of percent of control at 10^−7 M was more than 60% or the value of IC50 was more than 200 nM.)
27 | Cc1cnc(N[C@H]2CC[C@@H](CNC(=O)c3cccnc3Oc3ccccc3Br)C2)nc1N(C)C [compound 3014] | 3 (Class 3 The value of percent of control at 10^−7 M was more than 60% or the value of IC50 was more than 200 nM.)
28 | Cc1cc(N(C)C)nc(N[C@H]2CC[C@@H](CNC(=O)c3ccc(F)c(F)c3)CC2)n1 [compound 2753, N-[(cis-4-{[4-(dimethylamino)-6-methylpyrimidin-2-yl]amino}cyclohexyl)methyl]-3,4-difluorobenzamide] | 3 (Class 3 The value of percent of control at 10^−7 M was more than 60% or the value of IC50 was more than 200 nM.)
